Values of other authors as cited in patent US7473804B2, “Polymorphs of atomoxetine hydrochloride” (Teva Pharmaceutical Fine Chemicals s.r.l., priority 2004, dated 2009).

Details: as disclosed in U.S. Pat. No. 4,018,895, EP 0 052 492, EP 0 721 777

Structure (SMILES): CNCC[C@@H](Oc1ccccc1C)c1ccccc1 [Atomoxetine, (R)(−)-N-methyl-3-(2-methylphenoxy)-3-phenylpropylamine]
- effectiveness relative to the (+)-enantiomer: about nine times more effective than the (+)-enantiomer
- effectiveness relative to the racemic mixture (tomoxetine): about twice as effective as the racemic mixture
